Test results reported in article PMC8728392, “Synthesis, Anticancer Assessment, and Molecular Docking of Novel Chalcone-Thienopyrimidine Derivatives in HepG2 and MCF-7 Cell Lines” (Oxidative Medicine and Cellular Longevity, 2021).

What was measured:
[1] = system: human liver cancer cell line (HepG2); assay: MTT assay, cytotoxicity; format: cell-based; settings: HepG2; for survival percentage (mean ± SEM): 24 hours
Protocol: (§1) Cancer cell lines were manipulated according to the method described by Sigounas et al.. In this method, the cell lines were grown as adherent monolayers in T75 flasks with Dulbecco's modified Eagle's medium (DMEM) supplemented with 10% Fetal Bovine Serum (FBS), 2 mM L-glutamine, and 1% streptomycin/penicillin. The cells were left to grow in a CO2 incubator at 37°C, 5% CO2, and 95% humidity until their confluence.
(§2) The 3-[4,5-dimethylthiazol-2-yl]-2,5-diphenyltetrazolium bromide (MTT) colorimetric assay was used to examine the sensitivity of cells to tested compounds (as anticancer drugs), as previously described. This assay depends on the production of a purple formazan derivative from the yellow tetrazolium bromide (MTT) by mitochondrial succinate dehydrogenase in viable cells. The percentage of cell survival was calculated as follows: (1) Percentage of survival=O.D.treated cells/O.D.control cells×100.
(§3) For preliminary screening of the cytotoxicity of synthesized compounds 3a-g, cells exposed to DMSO were used as a control. Plotting the relationship between the survival score and the compound concentration and calculating the IC50 (the concentration required to inhibit cell viability by 50%) were performed for each test compound according to Li et al. in comparison with the reference standard anticancer agent, 5-FU.
(§4) The 3-[4,5-dimethylthiazol-2-yl]-2,5-diphenyltetrazolium bromide (MTT) colorimetric assay was used to examine the sensitivity of cells to tested compounds (as anticancer drugs), as previously described by Hussein et al. (2017). This assay depend on the production of a purple formazan derivative from the yellow tetrazolium bromide (MTT) by mitochondrial succinate dehydrogenase in viable cells. Briefly, after harvesting the cells with 0.25% trypsin, the cell lines were suspended in DMEM. Cells were seeded in 96-well microtiter plates at a concentration of 5×10^4 cell/well in a fresh medium and left to attach to the plates for 24 h before treatment with the tested compounds 3a-g. Test compounds were dissolved in dimethyl sulfoxide (DMSO). After 24 hours, cells were incubated with the appropriate concentration ranges of compounds, the wells were diluted to […] with fresh medium and incubation was continued for 24 hours. Three wells were used for each concentration. After 24 hours of treatment, 20 μl of MTT solution (5mg/ml) was added and subsequently the plates were further incubated for 4 hours to allow the viable cells to biotransform the yellow-colored MTT into purple formazan crystals. The optical density (O.D.) of each well was measured spectrophotometrically at […] with an enzyme-linked immunosorbent assay (ELISA) microplate reader (BioTek, EL-800, USA). The percentage of cell survival was calculated as follows: […]

[2] = system: human breast cancer cell line (MCF-7); assay: MTT assay, cytotoxicity; format: cell-based; settings: MCF-7; for survival percentage (mean ± SEM): 24 hours
Protocol: as §1, §2, §3, §4

HepG2 cell line = assay: Cell cycle analysis (PI, flow cytometry); format: cell-based, human
Protocol: Cell cycle analysis was performed to decide if the newly synthesized thienopyrimidine derivatives arrested the cell cycle and at what phase of the cell cycle, the HepG2 and MCF-7 cell lines were arrested. The experiments were performed as previously described by Tolba et al.. HepG2 and MCF-7 cell lines were seeded and incubated with the tested compounds in 6-well plates. After incubation overnight, the cells were washed twice with ice-cold phosphate-buffered saline (PBS), detached by EDTA-trypsinization from the plates, harvested by centrifugation, fixed in ice-cold 70% (v/v) ethanol, and washed with phosphate-buffered saline (PBS, pH 7.2 ± 0.2). The cells were resuspended with 0.1 mg/ml RNase, stained with […] propidium iodide (PI), and analyzed by flow cytometry using a FACSCalibur flow cytometer (BD Biosciences, San Jose, CA). CellQuest software (Becton Dickinson) was used to determine the cell cycle distributions after incubation with 5-FU or tested compounds. Exposure of HepG2 and MCF-7 cell lines to these compounds could interfere with the normal cell cycle distribution.

Compound	survival percentage (mean ± SEM) ([1]; 4.8828125 μg/ml) [%]	survival percentage (mean ± SEM) ([1]; 9.765625 μg/ml) [%]	survival percentage (mean ± SEM) ([1]; 19.53125 μg/ml) [%]	survival percentage (mean ± SEM) ([1]; 39.0625 μg/ml) [%]	survival percentage (mean ± SEM) ([1]; 78.125 μg/ml) [%]	survival percentage (mean ± SEM) ([1]; 156.25 μg/ml) [%]	survival percentage (mean ± SEM) ([1]; 312.5 μg/ml) [%]	survival percentage (mean ± SEM) ([1]; 625 μg/ml) [%]	survival percentage (mean ± SEM) ([1]; 1250 μg/ml) [%]	survival percentage (mean ± SEM) ([1]; 2500 μg/ml) [%]	survival percentage (mean ± SEM) ([1]; 5000 μg/ml) [%]	survival percentage (mean ± SEM) ([1]; 10000 μg/ml) [%]	survival percentage (mean ± SEM) ([2]; 4.8828125 μg/ml) [%]	survival percentage (mean ± SEM) ([2]; 9.765625 μg/ml) [%]	survival percentage (mean ± SEM) ([2]; 19.53125 μg/ml) [%]	survival percentage (mean ± SEM) ([2]; 39.0625 μg/ml) [%]	survival percentage (mean ± SEM) ([2]; 78.125 μg/ml) [%]	survival percentage (mean ± SEM) ([2]; 156.25 μg/ml) [%]	survival percentage (mean ± SEM) ([2]; 312.5 μg/ml) [%]	survival percentage (mean ± SEM) ([2]; 625 μg/ml) [%]	other results
CCOC(=O)Cn1c(SCC(=O)Nc2ccc(C(=O)/C=C\c3cccc([N+](=O)[O-])c3)cc2)nc2sc3c(c2c1=O)CCN(C(=O)OCC)C3 [Compound 3c, Ethyl (Z)-3-(2-Ethoxy-2-oxoethyl)-2-((2-((4-(3-(3-nitrophenyl)acryloyl)phenyl)amino)-2-oxoethyl)thio)-4-oxo-3,5,6,8-tetrahydropyrido[4′,3′:4,5]thieno[2,3-d]pyrimidine-7(4H)-carboxylate]	91.5 ± 0.013	81.6 ± 0.027	69.8 ± 0.027	63.0 ± 0.030	62.4 ± 0.051	22.1 ± 0.011	21.1 ± 0.004	20.6 ± 0.003	20.1 ± 0.004	19.0 ± 0.002	18.8 ± 0.001	18.0 ± 0.001	149.3 ± 0.082	135.4 ± 0.066	140.3 ± 0.197	132.0 ± 0.136	121.5 ± 0.183	110.9 ± 0.063	71.1 ± 0.156	11.3 ± 0.026	survival percentage (mean ± SEM) ([2]; 1250 μg/ml): 7.4 ± 0.003%; survival percentage (mean ± SEM) ([2]; 2500 μg/ml): 6.4 ± 0.003%; survival percentage (mean ± SEM) ([2]; 5000 μg/ml): 6.4 ± 0.007%; survival percentage (mean ± SEM) ([2]; 10000 μg/ml): 5.9 ± 0.002%; melting point: 189 to 190 °C; G1 phase cell population (HepG2 cell line): significant increase; %DIP G1 (HepG2 cell line; flow cytometry panel): 55.32%
CCOC(=O)N1CCc2c(sc3nc(SCC(=O)Nc4ccc(C(=O)/C=C\c5cc(OC)c(OC)c(OC)c5)cc4)[nH]c(=O)c23)C1 [Compound 3e, Ethyl (Z)-4-Oxo-2-((2-oxo-2-((4-(3-(3,4,5-trimethoxyphenyl)acryloyl)phenyl)amino)ethyl)-thio)-3,5,6,8-tetrahydropyrido[4′,3′:4,5]thieno[2,3-d]pyrimidine-7(4H)-carboxylate]	127.5 ± 0.033	114.3 ± 0.141	91.9 ± 0.060	45.1 ± 0.072	21.4 ± 0.073	21.1± 0.012	19.8 ± 0.005	18.9 ± 0.001	18.4 ± 0.003	17.4 ± 0.002	16.8 ± 0.003	14.1 ± 0.002	147.1 ± 0.051	131.6 ± 0.132	123.4 ± 0.070	129.1 ± 0.033	109.2 ± 0.084	104.2 ± 0.026	61.5 ± 0.112	38.0 ± 0.030	survival percentage (mean ± SEM) ([2]; 1250 μg/ml): 27.8 ± 0.021%; survival percentage (mean ± SEM) ([2]; 2500 μg/ml): 17.9 ± 0.002%; survival percentage (mean ± SEM) ([2]; 5000 μg/ml): 16.0 ± 0.000%; survival percentage (mean ± SEM) ([2]; 10000 μg/ml): 15.9 ± 0.002%; melting point: 167 to 168 °C; cell population in G2/M compared with control cells (HepG2 cell line): substantial increase; cell population in pre-G1 phases compared with control cells (HepG2 cell line): significant increase
CCOCc1nc2sc3c(c2c(=O)n1CC(=O)Nc1ccc(C(=O)/C=C\c2cccc([N+](=O)[O-])c2)cc1)CCN(C(=O)OCC)C3 [Compound 3f, Ethyl (Z)-2-(Ethoxymethyl)-3-(2-((4-(3-(3-nitrophenyl)acryloyl)phenyl)amino)-2-oxoethyl)-4-oxo-3,5,6,8-tetrahydropyrido[4′,3′:4,5]thieno[2,3-d]pyrimidine-7(4H)-carboxylate]	149.7 ± 0.200	149.1 ± 0.106	144.7 ± 0.140	119.1 ± 0.122	115.9 ± 0.157	112.0 ± 0.460	77.8 ± 0.071	15.3 ± 0.005	12.6 ± 0.019	11.7 ± 0.009	11.6 ± 0.002	10.7 ± 0.004	149.7 ± 0.082	132.2 ± 0.214	127.7 ± 0.180	122.6 ± 0.121	120.2 ± 0.150	119.7 ± 0.182	92.0 ± 0.141	67.1 ± 0.086	cytotoxic activity (in words) [1]: lowest cytotoxic activity; cytotoxic activity (in words) [2]: lowest cytotoxic activity; survival percentage (mean ± SEM) ([2]; 1250 μg/ml): 47.5 ± 0.181%; survival percentage (mean ± SEM) ([2]; 2500 μg/ml): 6.2 ± 0.004%; survival percentage (mean ± SEM) ([2]; 5000 μg/ml): 5.1 ± 0.003%; survival percentage (mean ± SEM) ([2]; 10000 μg/ml): 4.6 ± 0.002%; melting point: 178 to 179 °C
